# Measured values as given in PMC10745491 (Frontiers in Cellular Neuroscience, 2023).
# Read-outs that look alike come from different tables or passages of the source. Peptide text beside a SMILES is read from it.
# How the values were obtained:
# [1] = in vivo, sc
# CPA rats = conditions: rat, in vivo; for social interaction time (Fig. 5O): sc
# CDK2 = CDK2 (Homo sapiens, UniProt P24941)
# human V1aR = human V1aR (Homo sapiens, UniProt P37288); test: cell-based
# acetylcholinesterase = acetylcholinesterase (Homo sapiens, UniProt P22303); assay type: biochemical
# kappa = kappa (Homo sapiens, UniProt P41145)
# rat V1aR = rat V1aR (Rattus norvegicus, UniProt P30560); test: cell-based; assay type: cell-based
# GSK3alpha = GSK3alpha (Homo sapiens, UniProt P49840)
# Na+ channel = test: radioligand binding assay; design: species or system human
# H2 = H2 (Homo sapiens, UniProt P25021)
# 5-HT1A = 5-HT1A (Homo sapiens, UniProt P08908)
# 5-HT2B = 5-HT2B (Homo sapiens, UniProt P41595); test: radioligand binding assay
# D2S = D2S (Homo sapiens, UniProt P14416); assay type: binding
# 5-HT3 = 5-HT3 (Homo sapiens, UniProt P46098)
# BZD = test: radioligand binding assay; design: species or system human
# A1 = A1 (Homo sapiens, UniProt P30542); test: radioligand binding assay
# GR = GR (Homo sapiens, UniProt P04150)
# ERalpha = ERalpha (Homo sapiens, UniProt P03372)
# PPARgamma = PPARgamma (Homo sapiens, UniProt P37231)
# PDE5 = PDE5 (Homo sapiens, UniProt O76074); assay type: biochemical
# Chain of 5-HT2B (P41595 whole entry): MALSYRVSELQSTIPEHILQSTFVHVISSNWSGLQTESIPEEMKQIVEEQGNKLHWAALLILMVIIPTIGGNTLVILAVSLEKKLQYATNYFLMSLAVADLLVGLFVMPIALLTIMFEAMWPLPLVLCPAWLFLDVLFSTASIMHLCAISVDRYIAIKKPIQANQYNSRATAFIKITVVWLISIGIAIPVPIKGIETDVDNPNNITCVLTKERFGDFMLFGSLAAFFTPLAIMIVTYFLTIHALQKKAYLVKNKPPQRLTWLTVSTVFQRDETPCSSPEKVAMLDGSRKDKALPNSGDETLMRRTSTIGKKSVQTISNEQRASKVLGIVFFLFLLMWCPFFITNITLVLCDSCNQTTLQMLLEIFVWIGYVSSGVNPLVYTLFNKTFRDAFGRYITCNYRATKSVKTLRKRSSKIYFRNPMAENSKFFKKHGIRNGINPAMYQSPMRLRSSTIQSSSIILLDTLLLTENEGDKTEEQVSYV
# Chain of kappa (P41145 whole entry): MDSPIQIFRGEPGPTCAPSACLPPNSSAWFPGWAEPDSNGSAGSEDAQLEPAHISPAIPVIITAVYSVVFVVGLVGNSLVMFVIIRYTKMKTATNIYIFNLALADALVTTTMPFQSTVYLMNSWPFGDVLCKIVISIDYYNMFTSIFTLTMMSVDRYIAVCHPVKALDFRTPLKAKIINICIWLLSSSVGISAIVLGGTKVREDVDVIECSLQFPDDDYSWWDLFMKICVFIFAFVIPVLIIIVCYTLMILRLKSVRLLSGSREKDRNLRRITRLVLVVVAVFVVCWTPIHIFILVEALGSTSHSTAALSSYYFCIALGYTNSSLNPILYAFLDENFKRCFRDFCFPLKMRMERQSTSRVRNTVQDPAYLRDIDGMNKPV
# Chain of PPARgamma (P37231 whole entry): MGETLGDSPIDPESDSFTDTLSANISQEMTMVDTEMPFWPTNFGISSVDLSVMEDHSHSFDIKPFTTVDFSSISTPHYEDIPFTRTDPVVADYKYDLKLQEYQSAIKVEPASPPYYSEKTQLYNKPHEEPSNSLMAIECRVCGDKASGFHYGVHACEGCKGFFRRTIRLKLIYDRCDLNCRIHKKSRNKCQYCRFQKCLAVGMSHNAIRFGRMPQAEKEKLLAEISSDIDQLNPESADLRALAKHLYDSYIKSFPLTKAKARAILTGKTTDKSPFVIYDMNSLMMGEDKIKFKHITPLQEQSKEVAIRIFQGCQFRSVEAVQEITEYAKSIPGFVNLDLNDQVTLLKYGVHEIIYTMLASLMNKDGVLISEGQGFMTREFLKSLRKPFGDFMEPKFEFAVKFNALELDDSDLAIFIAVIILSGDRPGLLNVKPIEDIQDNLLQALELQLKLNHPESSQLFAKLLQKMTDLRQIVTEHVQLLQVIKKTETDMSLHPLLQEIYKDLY
# Chain of 5-HT1A (P08908 whole entry): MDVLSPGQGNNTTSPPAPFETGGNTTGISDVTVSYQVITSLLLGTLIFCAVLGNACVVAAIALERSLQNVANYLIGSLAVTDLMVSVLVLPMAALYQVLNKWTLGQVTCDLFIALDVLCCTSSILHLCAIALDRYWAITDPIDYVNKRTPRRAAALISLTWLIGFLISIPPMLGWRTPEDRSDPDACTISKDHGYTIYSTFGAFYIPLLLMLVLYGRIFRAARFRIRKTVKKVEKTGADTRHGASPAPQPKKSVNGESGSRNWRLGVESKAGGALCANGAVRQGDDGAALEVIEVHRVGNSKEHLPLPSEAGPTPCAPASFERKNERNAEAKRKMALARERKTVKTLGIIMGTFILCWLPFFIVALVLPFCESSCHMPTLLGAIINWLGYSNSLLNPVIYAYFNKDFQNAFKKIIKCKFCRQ
# Chain of acetylcholinesterase (P22303 32-614): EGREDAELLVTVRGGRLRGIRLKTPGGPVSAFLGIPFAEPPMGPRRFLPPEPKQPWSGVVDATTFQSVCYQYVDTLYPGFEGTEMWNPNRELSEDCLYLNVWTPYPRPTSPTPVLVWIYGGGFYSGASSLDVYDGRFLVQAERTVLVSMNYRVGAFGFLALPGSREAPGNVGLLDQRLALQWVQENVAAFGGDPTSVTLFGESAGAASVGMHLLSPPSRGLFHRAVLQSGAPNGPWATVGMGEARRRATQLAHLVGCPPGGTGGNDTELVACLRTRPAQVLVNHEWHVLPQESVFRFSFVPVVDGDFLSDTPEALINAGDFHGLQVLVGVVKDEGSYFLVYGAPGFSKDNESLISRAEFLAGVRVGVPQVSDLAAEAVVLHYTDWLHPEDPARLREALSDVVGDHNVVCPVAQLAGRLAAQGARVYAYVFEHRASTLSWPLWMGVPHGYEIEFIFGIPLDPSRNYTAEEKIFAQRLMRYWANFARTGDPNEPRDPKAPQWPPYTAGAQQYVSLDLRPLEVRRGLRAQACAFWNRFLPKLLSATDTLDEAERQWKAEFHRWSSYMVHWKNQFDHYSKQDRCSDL
# Chain of A1 (P30542 whole entry): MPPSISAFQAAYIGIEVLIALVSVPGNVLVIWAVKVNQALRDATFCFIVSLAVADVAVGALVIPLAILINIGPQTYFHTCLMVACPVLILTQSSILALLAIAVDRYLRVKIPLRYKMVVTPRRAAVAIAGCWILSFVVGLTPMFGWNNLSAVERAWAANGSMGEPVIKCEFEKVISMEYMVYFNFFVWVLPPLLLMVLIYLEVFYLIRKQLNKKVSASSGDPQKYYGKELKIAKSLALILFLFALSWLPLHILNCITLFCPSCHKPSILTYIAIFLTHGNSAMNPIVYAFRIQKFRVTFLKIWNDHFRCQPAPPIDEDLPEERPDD
# Chain of D2S (P14416 other isoform, or with tags, fused parts or gaps): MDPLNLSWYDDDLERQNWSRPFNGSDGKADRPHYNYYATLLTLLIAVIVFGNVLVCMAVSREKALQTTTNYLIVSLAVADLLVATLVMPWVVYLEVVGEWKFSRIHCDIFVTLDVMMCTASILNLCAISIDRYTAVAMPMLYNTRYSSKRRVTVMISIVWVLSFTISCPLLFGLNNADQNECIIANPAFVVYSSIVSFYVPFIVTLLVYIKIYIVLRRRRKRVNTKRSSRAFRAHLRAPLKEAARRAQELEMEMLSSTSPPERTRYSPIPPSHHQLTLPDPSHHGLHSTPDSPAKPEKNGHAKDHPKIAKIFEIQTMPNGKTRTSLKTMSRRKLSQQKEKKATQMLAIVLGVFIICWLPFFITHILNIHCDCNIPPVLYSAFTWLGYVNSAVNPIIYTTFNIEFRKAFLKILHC
# Chain of rat V1aR (P30560 whole entry): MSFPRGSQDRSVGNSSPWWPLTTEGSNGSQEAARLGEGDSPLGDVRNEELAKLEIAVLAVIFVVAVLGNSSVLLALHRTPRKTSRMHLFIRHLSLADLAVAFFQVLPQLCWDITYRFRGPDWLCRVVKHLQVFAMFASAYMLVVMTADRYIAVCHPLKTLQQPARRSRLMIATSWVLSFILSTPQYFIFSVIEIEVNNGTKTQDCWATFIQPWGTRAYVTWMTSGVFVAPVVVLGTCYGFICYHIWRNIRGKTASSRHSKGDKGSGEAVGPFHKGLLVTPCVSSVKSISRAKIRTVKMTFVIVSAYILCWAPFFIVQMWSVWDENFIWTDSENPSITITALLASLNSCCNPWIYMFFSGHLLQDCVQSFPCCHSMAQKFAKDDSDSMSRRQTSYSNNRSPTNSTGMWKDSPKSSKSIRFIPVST
# Chain of H2 (P25021 whole entry): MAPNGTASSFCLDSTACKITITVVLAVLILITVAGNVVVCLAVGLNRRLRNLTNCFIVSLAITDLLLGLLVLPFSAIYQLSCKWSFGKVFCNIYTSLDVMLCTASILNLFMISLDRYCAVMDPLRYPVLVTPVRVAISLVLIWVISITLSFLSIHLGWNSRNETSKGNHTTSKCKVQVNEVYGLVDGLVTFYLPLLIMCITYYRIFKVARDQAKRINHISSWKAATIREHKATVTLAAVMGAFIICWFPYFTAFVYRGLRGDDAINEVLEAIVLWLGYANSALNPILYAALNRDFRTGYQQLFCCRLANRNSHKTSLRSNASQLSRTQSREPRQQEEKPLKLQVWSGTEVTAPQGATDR
# Chain of GSK3alpha (P49840 whole entry): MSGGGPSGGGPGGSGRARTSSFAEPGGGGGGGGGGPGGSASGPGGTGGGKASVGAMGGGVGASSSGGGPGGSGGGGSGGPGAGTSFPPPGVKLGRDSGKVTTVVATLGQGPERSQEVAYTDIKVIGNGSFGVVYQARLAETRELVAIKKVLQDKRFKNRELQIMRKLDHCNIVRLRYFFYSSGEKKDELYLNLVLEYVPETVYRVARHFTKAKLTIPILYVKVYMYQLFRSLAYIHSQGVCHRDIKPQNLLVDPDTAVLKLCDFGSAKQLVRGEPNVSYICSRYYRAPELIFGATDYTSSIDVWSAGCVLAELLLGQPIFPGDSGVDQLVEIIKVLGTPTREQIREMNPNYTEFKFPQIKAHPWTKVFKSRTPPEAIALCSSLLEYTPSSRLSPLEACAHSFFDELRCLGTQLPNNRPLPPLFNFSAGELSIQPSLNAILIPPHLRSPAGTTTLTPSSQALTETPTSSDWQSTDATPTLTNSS
# Chain of 5-HT3 (P46098 24-478): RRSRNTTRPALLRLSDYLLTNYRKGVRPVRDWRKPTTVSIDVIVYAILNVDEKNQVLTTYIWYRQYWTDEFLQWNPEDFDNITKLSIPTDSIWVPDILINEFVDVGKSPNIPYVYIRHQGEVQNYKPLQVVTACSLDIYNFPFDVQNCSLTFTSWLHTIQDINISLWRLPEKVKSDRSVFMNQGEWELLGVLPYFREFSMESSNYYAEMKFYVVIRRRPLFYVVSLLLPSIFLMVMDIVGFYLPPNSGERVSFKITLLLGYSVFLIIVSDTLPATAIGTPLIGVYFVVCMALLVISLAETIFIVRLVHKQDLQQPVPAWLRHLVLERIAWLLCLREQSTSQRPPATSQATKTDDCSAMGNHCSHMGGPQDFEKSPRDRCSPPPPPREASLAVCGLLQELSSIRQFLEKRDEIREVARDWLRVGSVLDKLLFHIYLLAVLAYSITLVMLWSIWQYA
smiles,measurement,setting,value
"CC[C@H](C)[C@@H]1NC(=O)[C@H](Cc2ccc(O)cc2)NC(=O)CNC(=O)CC[C@@H](C(=O)N2CC(F)C[C@H]2C(=O)N[C@@H](CC(C)C)C(=O)NCC(N)=O)NC(=O)[C@H](CC(N)=O)NC(=O)[C@H](CCC(N)=O)NC1=O (some centres unmarked) [RO6958375] (HELM PEPTIDE1{G.Y.I.Q.N.E.[O=C([C@@H]1CC(F)CN1[*:1])[*:2]].L.G.[am]}$PEPTIDE1,PEPTIDE1,1:R1-6:R3$$$V2.0)",highest concentration detected in rat CSF,[1]; 0.03 mg/kg,0.24 nM
same,highest concentration detected in rat CSF,[1]; 0.1 mg/kg,0.58 nM
same,CNS uptake from plasma,[1]; rat,ca. 1%
same,brain half-life (CSF kinetic),[1]; rat,ca. 70 min
same,half-life in plasma,[1]; rat,10 to 15 min
same,subcutaneous absorption,[1]; rat,rapid
same,social deficits observed in CPA rats,CPA rats,not evident
same,social interaction time (Fig. 5O),CPA rats; 0.001 mg/kg,198.6 s
same,social interaction time (Fig. 5O),CPA rats; 0.07 mg/kg,190.2 s
same,% Inhibition of Control Specific Binding,CDK2,13%
same,Mean / % of Control Specific Binding,CDK2,87.1%
same,EC50,human V1aR,> 27 µM
same,% Inhibition of Control Specific Binding,acetylcholinesterase,-2%
same,Mean / % of Control Specific Binding,acetylcholinesterase,101.5%
same,% Inhibition of Control Specific Binding,kappa,-13%
same,Mean / % of Control Specific Binding,kappa,112.7%
same,EC50,rat V1aR,> 27 µM
same,activity on rat V1aR (inactive up to),rat V1aR,> 1 µM
same,% Inhibition of Control Specific Binding,GSK3alpha,-5%
same,Mean / % of Control Specific Binding,GSK3alpha,105.2%
same,% Inhibition of Control Specific Binding,Na+ channel,10%
same,Mean / % of Control Specific Binding,Na+ channel,89.6%
same,% Inhibition of Control Specific Binding,H2,18%
same,Mean / % of Control Specific Binding,H2,81.9%
same,% Inhibition of Control Specific Binding,5-HT1A,16%
same,Mean / % of Control Specific Binding,5-HT1A,84.4%
same,% Inhibition of Control Specific Binding,5-HT2B,-2%
same,Mean / % of Control Specific Binding,5-HT2B,102%
same,% Inhibition of Control Specific Binding,D2S,6%
same,Mean / % of Control Specific Binding,D2S,93.7%
same,% Inhibition of Control Specific Binding,5-HT3,20%
same,Mean / % of Control Specific Binding,5-HT3,80%
same,% Inhibition of Control Specific Binding,BZD,-16%
same,Mean / % of Control Specific Binding,BZD,116%
same,% Inhibition of Control Specific Binding,A1,-4%
same,Mean / % of Control Specific Binding,A1,104.1%
same,% Inhibition of Control Specific Binding,GR,-9%
same,Mean / % of Control Specific Binding,GR,109.1%
same,% Inhibition of Control Specific Binding,ERalpha,-2%
same,Mean / % of Control Specific Binding,ERalpha,101.7%
same,% Inhibition of Control Specific Binding,PPARgamma,-3%
same,Mean / % of Control Specific Binding,PPARgamma,103.1%
same,% Inhibition of Control Specific Binding,PDE5,-21%
same,Mean / % of Control Specific Binding,PDE5,121.4%
